Like-named read-outs stand apart in the source and are kept apart here.
How the values were obtained:
hsMTHFD2 [1] = biological target: T1, hsMTHFD2 (Homo sapiens, UniProt P13995); assay: FoID cyclohydrolase (CYH) enzyme assay; format: biochemical
T1 construct: His-tag (vector pHis-TEV); made in house; host or cells: E. coli BL21 (DE3)
T1 sequence (P13995 36-350): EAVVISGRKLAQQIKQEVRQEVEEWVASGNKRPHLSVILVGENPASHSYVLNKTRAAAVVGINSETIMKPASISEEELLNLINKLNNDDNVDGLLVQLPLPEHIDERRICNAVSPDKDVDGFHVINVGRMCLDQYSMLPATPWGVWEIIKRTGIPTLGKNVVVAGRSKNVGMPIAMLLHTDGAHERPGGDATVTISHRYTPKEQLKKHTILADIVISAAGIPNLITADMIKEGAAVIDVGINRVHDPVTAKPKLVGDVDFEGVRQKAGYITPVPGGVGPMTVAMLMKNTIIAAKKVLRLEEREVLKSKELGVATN
Description: (§1) (6R,S)-5,10-Methylene-5,6,7,8-tetrahydrofolic acid ((6R,S)-5,10-CH2-THF), calcium salt and (6R,S)-5,10-Methenyl-5,6,7,8-tetrahydrofolic acid ((6R,S)-5,10-CH=THF) chloride were purchased from Schircks Laboratories (Bauma, Switzerland) and were used as substrates for FoID dehydrogenase and cyclohydrolase enzyme assays, respectively. Only the R-isomer, which accounts for 50% of (6R,S)-5,10-CH2-THF and (6R,S)-5,10-CH=THF, respectively, is used by the enzyme. (6R,S)-5,10-CH2-THF was dissolved in N2-spargeled basic buffer (50 mM Tris-HCl (pH 8.0), 100 mM β-mercaptoethanol) as described by Sah and Varshney, 2015a (6R,S)-5,10-CH=THF was first dissolved in DMSO as a 100 mM stock solution.
Because FoID is a bifunctional enzyme, dehydrogenase and cyclohydrolase activities were determined for FoID enzyme kinetics, respectively. The dehydrogenase activity of FoID was assayed for its substrate 5,10-CH2-THF and cofactor NADP+ (in the case of MTHFD2, NAD+ was used as cofactor) based on monitoring the formation of 5,10-CH=THF while the cyclohydrolase activity of FoID was determined for its substrate 5,10-CH=THF by monitoring the hydrolysis of 5,10-CH2-THF. The enzyme kinetics for the dehydrogenase activity of all FoIDs except hsMTHFD1_DC were determined at 30° C. in 50 mM Tris-HCl (pH 7.5), 30 mM β-mercaptoethanol. The hsMTHFD1_DC dehydrogenase activity was measured in 25 mM MOPS (pH 7.3), 30 mM β-mercaptoethanol at 30° C. To measure the enzyme kinetics constants for 5,10-CH2-THF, for example in the case of ecFoID, the NADP concentration was fixed at 1 mM and the concentration of 5,10-CH2-THF varied from 5 μM to 1,500 μM (R-isomer). Similarly, to measure the kinetic constants of ecFoID for NADP+, the concentration of 5,10-CH2-THF (R-isomer) was fixed at 1 mM and the concentration of NADP+ varied from 10 μM to 1,500 μM. For different FoIDs, the varied concentration range of substrates could be different. […] To monitor the formation of 5,10-CH=THF, the absorbance of the reaction mixture was monitored at 350 nm in micro UV cuvettes (BRAND, Essex, Connecticut, USA). The concentration of 5,10-CH=THF produced in the reaction was determined using an extinction co-efficient of 0.0249 μM-1 cm-1. […] The consumption of 5,10-CH=THF was measured by recording the absorbance of the reactions at 355 nm using the TECAN Infinite 200 PRO equipped with a monochromator. […] The inhibition constants (Ki) of carolacton on FoID were determined by measuring the apparent Km values when adding certain amounts of carolacton to the enzyme reactions. […] To compare the inhibition effects of carolacton between the different FoIDs, the half maximal inhibitory concentration (IC50) of carolacton on the same amount of enzyme was determined for FoIDs involved in this study. […]

hsMTHFD2 [2] = biological target: T1, hsMTHFD2; assay: FoID dehydrogenase (DH) enzyme assay; format: biochemical
Description: as §1
(§2) Because FoID is a bifunctional enzyme, dehydrogenase and cyclohydrolase activities were determined for FoID enzyme kinetics, respectively. The dehydrogenase activity of FoID was assayed for its substrate 5,10-CH2-THF and cofactor NADP+ (in the case of MTHFD2, NAD+ was used as cofactor) based on monitoring the formation of 5,10-CH=THF while the cyclohydrolase activity of FoID was determined for its substrate 5,10-CH=THF by monitoring the hydrolysis of 5,10-CH2-THF. The enzyme kinetics for the dehydrogenase activity of all FoIDs except hsMTHFD1_DC were determined at 30° C. in 50 mM Tris-HCl (pH 7.5), 30 mM β-mercaptoethanol. The hsMTHFD1_DC dehydrogenase activity was measured in 25 mM MOPS (pH 7.3), 30 mM β-mercaptoethanol at 30° C. To measure the enzyme kinetics constants for 5,10-CH2-THF, for example in the case of ecFoID, the NADP concentration was fixed at 1 mM and the concentration of 5,10-CH2-THF varied from 5 μM to 1,500 μM (R-isomer). Similarly, to measure the kinetic constants of ecFoID for NADP+, the concentration of 5,10-CH2-THF (R-isomer) was fixed at 1 mM and the concentration of NADP+ varied from 10 μM to 1,500 μM. For different FoIDs, the varied concentration range of substrates could be different. The 50 μL reactions of dehydrogenase assays were initiated by adding appropriate amounts enzyme (4 nM ecFoID, 4 nM spFoID, 15 nM hsMTHFD1_DC, 20 nM hsMTHFD2, 20 nM G8S, 20 nM Q98H, 10 nM K54N, 200 nM ΔK54R55 in the corresponding assays) and terminated with 50 μL 1 M HCl after 2 min incubation at 30° C. To monitor the formation of 5,10-CH=THF, the absorbance of the reaction mixture was monitored at 350 nm in micro UV cuvettes (BRAND, Essex, Connecticut, USA). The concentration of 5,10-CH=THF produced in the reaction was determined using an extinction co-efficient of 0.0249 μM-1 cm-1. Cyclohydrolase activity for each FoID was assayed in the same buffer as dehydrogenase activity at 30° C. but for 30 s. The concentration of FoID used in each assay was 5 nM of ecFoID, spFoID and hsMTHFD1_DC, respectively, and 2 nM of hsMTHFD2. The consumption of 5,10-CH=THF was measured by recording the absorbance of the reactions at 355 nm using the TECAN Infinite 200 PRO equipped with a monochromator. To measure the enzyme kinetic constants, different concentrations of 5,10-CH=THF (varied from […]) were used in […] reaction mixtures. The inhibition constants (Ki) of carolacton on FoID were determined by measuring the apparent Km values when adding certain amounts of carolacton to the enzyme reactions. For ecFoID, 10 nM carolacton was added in the dehydrogenase assay and 50 nM carolacton was used in the cyclohydrolase assay. For spFoID, 25 nM carolacton was added in both dehydrogenase assay and cyclohydrolase assay. For hsMTHFD1_DC, 30 nM carolacton was added in the dehydrogenase assay and 10 nM in the cyclohydrolase assay. […] To compare the inhibition effects of carolacton between the different FoIDs, the half maximal inhibitory concentration (IC50) of carolacton on the same amount of enzyme was determined for FoIDs involved in this study. The enzyme concentration used to determine dehydrogenase activity IC50 was 10 nM, and the enzyme used for cyclohydrolase IC50 measurements was 5 nM. All enzyme kinetics measurements were performed as independent triplicates. […]

hsMTHFD1 DC301 = biological target: T2, hsMTHFD1 DC301 (Homo sapiens, UniProt P11586); assay: FoID dehydrogenase (DH) enzyme assay; format: biochemical
T2 construct: We therefore expressed and purified hsMTHFD2 and hsMTHFD1_DC to test them biochemically; His-tag (vector pHis-TEV); made in house; host or cells: E. coli BL21 (DE3)
T2 sequence (P11586 2-291 limits assumed): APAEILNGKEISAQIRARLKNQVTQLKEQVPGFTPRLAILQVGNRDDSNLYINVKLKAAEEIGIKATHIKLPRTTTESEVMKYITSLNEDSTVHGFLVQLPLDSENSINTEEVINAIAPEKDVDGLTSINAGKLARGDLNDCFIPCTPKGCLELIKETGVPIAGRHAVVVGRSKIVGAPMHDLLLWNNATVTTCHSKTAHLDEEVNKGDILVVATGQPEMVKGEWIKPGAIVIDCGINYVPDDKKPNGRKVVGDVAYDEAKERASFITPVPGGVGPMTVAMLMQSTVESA
Description: as §1, §2

spFoID = biological target: T3, spFoID (Streptococcus pneumoniae serotype 4, UniProt Q97RI9); assay: FoID cyclohydrolase (CYH) enzyme assay; format: biochemical, S. pneumoniae
T3 construct: made in house; host or cells: E. coli BL21 (DE3)
Description: as §1
Because FoID is a bifunctional enzyme, dehydrogenase and cyclohydrolase activities were determined for FoID enzyme kinetics, respectively. The dehydrogenase activity of FoID was assayed for its substrate 5,10-CH2-THF and cofactor NADP+ (in the case of MTHFD2, NAD+ was used as cofactor) based on monitoring the formation of 5,10-CH=THF while the cyclohydrolase activity of FoID was determined for its substrate 5,10-CH=THF by monitoring the hydrolysis of 5,10-CH2-THF. The enzyme kinetics for the dehydrogenase activity of all FoIDs except hsMTHFD1_DC were determined at 30° C. in 50 mM Tris-HCl (pH 7.5), 30 mM β-mercaptoethanol. The hsMTHFD1_DC dehydrogenase activity was measured in 25 mM MOPS (pH 7.3), 30 mM β-mercaptoethanol at 30° C. […] To monitor the formation of 5,10-CH=THF, the absorbance of the reaction mixture was monitored at 350 nm in micro UV cuvettes (BRAND, Essex, Connecticut, USA). The concentration of 5,10-CH=THF produced in the reaction was determined using an extinction co-efficient of 0.0249 μM-1 cm-1. […] The consumption of 5,10-CH=THF was measured by recording the absorbance of the reactions at 355 nm using the TECAN Infinite 200 PRO equipped with a monochromator. […] The inhibition constants (Ki) of carolacton on FoID were determined by measuring the apparent Km values when adding certain amounts of carolacton to the enzyme reactions. […]

[3] = 5 nM enzyme, read-out: IC50, carolacton inhibition on CYH activity
[4] = vs 5,10-CH=THF, read-out: Ki (5,10-CH═THF), carolacton inhibition on CYH activity
[5] = 10 nM enzyme, read-out: IC50, carolacton inhibition on DH activity
[6] = vs 5,10-CH2-THF, read-out: Ki (5,10-CH2—THF), carolacton inhibition on DH activity

T3 sequence (Q97RI9 whole entry): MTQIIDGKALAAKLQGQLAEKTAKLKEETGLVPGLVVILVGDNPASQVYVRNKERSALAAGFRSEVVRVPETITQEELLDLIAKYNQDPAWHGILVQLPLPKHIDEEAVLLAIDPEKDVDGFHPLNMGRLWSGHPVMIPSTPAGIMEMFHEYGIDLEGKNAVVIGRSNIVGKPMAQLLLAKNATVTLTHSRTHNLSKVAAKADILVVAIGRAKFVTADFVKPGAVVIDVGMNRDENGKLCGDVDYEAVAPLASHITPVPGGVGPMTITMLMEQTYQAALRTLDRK

## CO[C@H](CC(=O)O)[C@@H](C)C(=O)[C@H](C)/C=C(\C)[C@H]1OC(=O)[C@H](O)[C@H](O)/C=C/[C@H](C)CCC[C@@H]1C [Carolacton, carolacton]
hsMTHFD2 [1]; [3]
  IC50: 0.0857 µM
hsMTHFD2 [1]; [4]
  Ki: 0.0127 µM
hsMTHFD2 [2]; [5]
  IC50: 0.0065 µM
hsMTHFD2 [2]; cofactor is NAD in the case of hsMTHFD2, read-out: Ki (NADP^+)^a, carolacton inhibition on DH activity
  Ki: 0.0167 µM
hsMTHFD2 [2]; [6]
  Ki: 0.00642 µM
hsMTHFD1 DC301; [5]
  IC50: 0.038 µM
hsMTHFD1 DC301; [6]
  Ki: 0.00593 µM
hsMTHFD1 DC301; vs cofactor NADP+, read-out: Ki (NADP^+), carolacton inhibition on DH activity
  Ki: 0.0587 µM
spFoID; [3]
  IC50: 0.0381 µM
spFoID; 5 nM enzyme, read-out: IC80, carolacton inhibition on CYH activity
  IC80: 0.101 µM
spFoID; [4]
  Ki: 0.0381 µM

Source: US11357752B2, “Carolacton and derivatives thereof for use in the treatment of cell proliferation disorders” (Helmholtz-Zentrum für Infektionsforschung GmbH, priority 2017, dated 2022)
